Read-outs that look alike come from different tables or passages of the source. Ends that are not written are not given here.
Experiment: Solubility screening in trehalose matrices pH 2.65 to 7.03;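 also: test items are peptides, each checked for solubility in every trehalose matrix, the matrices made up in distilled deionised water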
Assay type: physicochemical
Settings: for solubility: read-out: Solubility [mg per ml]
[1] = 2 mM HCl and 260 mM trehalose dihydrate, pH 2.65
[2] = 10 mM potassium dihydrogen phosphate and 260 mM trehalose dihydrate, pH 6.03
[3] = 10 mM potassium dihydrogen phosphate and 260 mM trehalose dihydrate, pH 7.03
[4] = 10 mM sodium citrate and 260 mM trehalose dihydrate, pH 3.01
[5] = 10 mM sodium citrate and 260 mM trehalose dihydrate, pH 3.99
[6] = 10 mM sodium citrate and 260 mM trehalose dihydrate, pH 5.02
[7] = 10 mM sodium citrate and 260 mM trehalose dihydrate, pH 6.01
[8] = aqueous buffer, 10 mM potassium dihydrogen phosphate and 260 mM trehalose dihydrate, pH 6.03
[9] = aqueous buffer, 10 mM potassium dihydrogen phosphate and 260 mM trehalose dihydrate, pH 7.03
[10] = aqueous buffer, 10 mM sodium citrate and 260 mM trehalose dihydrate, pH 3.01
[11] = aqueous buffer, 10 mM sodium citrate and 260 mM trehalose dihydrate, pH 3.99
[12] = aqueous buffer, 10 mM sodium citrate and 260 mM trehalose dihydrate, pH 5.02
[13] = aqueous buffer, 10 mM sodium citrate and 260 mM trehalose dihydrate, pH 6.01
[14] = water, 2 mM HCl and 260 mM trehalose dihydrate, pH 2.65

Sequence	Comments (solubility on preparation) [1]	Solubility [mg per ml 'as is'] [1]	Solubility [μmol per ml] [1]	Solubility after 24 Hours [1]	Solubility [mg per ml 'as is'] [2]	Solubility [μmol per ml] [2]	Comments (solubility on preparation) [3]	Solubility [mg per ml 'as is'] [3]	Solubility [μmol per ml] [3]	Solubility after 24 Hours [3]	Comments (solubility on preparation) [4]	Solubility [mg per ml 'as is'] [4]	Solubility [μmol per ml] [4]	Solubility after 24 Hours [4]	Solubility [mg per ml 'as is'] [5]	Comments (solubility on preparation) [7]	Solubility [mg per ml 'as is'] [7]	Solubility [μmol per ml] [7]	Solubility after 24 Hours [7]	solubility [13]	also measured
AERERIFKRFDANGEGK [Bir16A]	Completely dissolved	24.86 mg per ml ‘as is’	10.652 μmol per ml	Completely dissolved	21.54 mg per ml ‘as is’	9.229 μmol per ml	Completely dissolved	21.98 mg per ml ‘as is’	9.418 μmol per ml	Completely dissolved	Completely dissolved	7.17 mg per ml ‘as is’	3.074 μmol per ml	Completely dissolved	7.49 mg per ml ‘as is’	Completely dissolved	25.86 mg per ml ‘as is’	11.080 μmol per ml	Completely dissolved	≥ 22400 µg/mL	Commute (solubility on preparation) [2]: Completely dissolved; Solubility after 24 Hours [2]: Completely dissolved; Comments (solubility on preparation) [5]: Completely dissolved; Solubility [μmol per ml] [5]: 3.208 μmol per ml; Solubility after 24 Hours [5]: Completely dissolved; Comments (solubility on preparation) [6]: Completely dissolved; Solubility [mg per ml 'as is'] [6]: 23.16 mg per ml ‘as is’; Solubility [μmol per ml] [6]: 9.923 μmol per ml; Solubility after 24 Hours [6]: Completely dissolved; solubility [8]: ≥ 18700 µg/mL; solubility [9]: ≥ 19100 µg/mL; solubility [10]: ≥ 6220 µg/mL; solubility [11]: ≥ 6490 µg/mL; solubility [12]: ≥ 20100 µg/mL; solubility [14]: ≥ 21600 µg/mL
AKYMVIQGEPGRVIRGK [Bir12B]	Completely dissolved	10.22 mg per ml ‘as is’	4.490 μmol per ml	Completely dissolved	23.84 mg per ml ‘as is’	10.474 μmol per ml	Completely dissolved	20.62 mg per ml ‘as is’	9.060 μmol per ml	Completely dissolved	Completely dissolved	5.47 mg per ml ‘as is’	2.403 μmol per ml	Completely dissolved	10.32 mg per ml ‘as is’	Completely dissolved.	2.28 mg per ml ‘as is’	1.002 μmol per ml	Completely dissolved.	≥ 1910 µg/mL	Commute (solubility on preparation) [2]: Completely dissolved; Solubility after 24 Hours [2]: Completely dissolved; Comments (solubility on preparation) [5]: Completely dissolved; Solubility [μmol per ml] [5]: 4.534 μmol per ml; Solubility after 24 Hours [5]: Completely dissolved; Comments (solubility on preparation) [6]: Completely dissolved; Solubility [mg per ml 'as is'] [6]: 5.84 mg per ml ‘as is’; Solubility [μmol per ml] [6]: 2.564 μmol per ml; Solubility after 24 Hours [6]: Completely dissolved; solubility [8]: ≥ 19900 µg/mL; solubility [9]: ≥ 17200 µg/mL; solubility [10]: ≥ 4570 µg/mL; solubility [11]: ≥ 8630 µg/mL; solubility [12]: ≥ 4880 µg/mL; solubility [14]: ≥ 8540 µg/mL
ETLLRAVESYLLAHSDAY [Bir09]	Completely dissolved•	0.92 mg per ml ‘as is’	0.379 μmol per ml	Completely dissolved•	0.35 mg per ml ‘as is’	0.143 μmol per ml	Completely dissolved	1.52 mg per ml ‘as is’	0.627 μmol per ml	Completely dissolved	Undissolved in 1.5 mL•	0.37 mg per ml ‘as is’	0.153 μmol per ml	Undissolved	0.36 mg per ml ‘as is’	Completely dissolved	1.03 mg per ml ‘as is’	0.426 μmol per ml	completely dissolved	≥ 875 µg/mL	Solubility [mg per ml] [4]: 0.314 mg per ml; Solubility [μmol per ml] [5]: 0.148 μmol per ml; Solubility [mg per ml 'as is'] [6]: 0.37 mg per ml ‘as is’; Solubility [μmol per ml] [6]: 0.154 μmol per ml; solubility [8]: ≥ 293 µg/mL; solubility [9]: ≥ 1290 µg/mL; solubility [11]: ≥ 303 µg/mL; solubility [12]: ≥ 315 µg/mL; solubility [14]: ≥ 777 µg/mL
FNYETETTSVIPAARK [BIR1I]	Completely dissolved	19.50 mg per ml ‘as is’	9.222 μmol per ml	Completely dissolved	22.14 mg per ml ‘as is’	10.470 μmol per ml	Completely dissolved	20.78 mg per ml ‘as is’	9.827 μmol per ml	Completely dissolved	Completely dissolved	1.65 mg per ml ‘as is’	0.779 μmol per ml	Completely dissolved	2.28 mg per ml ‘as is’	Completely dissolved	7.45 mg per ml ‘as is’	3.522 μmol per ml	Completely dissolved	≥ 6430 µg/mL	Commute (solubility on preparation) [2]: Completely dissolved; Solubility after 24 Hours [2]: Completely dissolved; Comments (solubility on preparation) [5]: Completely dissolved; Solubility [μmol per ml] [5]: 1.078 μmol per ml; Solubility after 24 Hours [5]: Completely dissolved; Comments (solubility on preparation) [6]: Completely dissolved; Solubility [mg per ml 'as is'] [6]: 2.30 mg per ml ‘as is’; Solubility [μmol per ml] [6]: 1.089 μmol per ml; Solubility after 24 Hours [6]: Completely dissolved; solubility [8]: ≥ 19100 µg/mL; solubility [9]: ≥ 18000 µg/mL; solubility [10]: ≥ 1420 µg/mL; solubility [11]: ≥ 1970 µg/mL; solubility [12]: ≥ 1990 µg/mL; solubility [14]: ≥ 16800 µg/mL
KEMGETLLRAVESYLLAHS [BIR09R]																Completely dissolved	4.92 mg per ml ‘as is’	1.993 μmol per ml	Completely dissolved	≥ 4280 µg/mL	

— patent publication US9017689B2, “Peptides for vaccine against birch allergy” (Circassia Limited, priority 2010, dated 2015)
